Reference: patent US11766407B2, “Polymerized whey protein encapsulated antioxidant compound and a process for preparation of same” (FoodScience Corporation, priority 2020, dated 2023)

What was measured:
[1] = Physicochemical characterization of PWPC-GSH (particle size, zeta potential, rheology, TEM); details: GSH alone
in vivo = details: male, ICR, mouse, po
Description: ICR mice, male, SPF, 3 weeks, weighing from 18 to 22 g were provided by Beijing HFK Bioscience Co., Ltd (Beijing, China).
All mice were housed in plastic lab animal cages in a ventilated room. The room was maintained at 20±2° C. and 60±10% relative humidity with a 12 h light/dark cycle. Water and commercial laboratory complete food for mice were available ad libitum. They were acclimated to this environment for 7 days before treatment. All animal experiments were approved by the Animal Welfare and Research Ethics Committee at Jilin University (Approval ID: SY201905018).
Blood collection. Before blood collection, 30 μL heparin solution was added to 1.5 mL centrifugal tubes and vortexed. The blood samples (about 0.5 mL) was collected by removing one eye of the mice. The blood was centrifuged at 6000 rpm at room temperature for 2 min. The upper plasma was transferred to a new centrifugal tube.
Pharmacokinetic parameters were calculated using a mouse model.

particle size [1]: 287.83±6.18 nm | AUC (in vivo): 19200 ng·h/mL | Cmax (in vivo): 7370 ng/mL | Tmax (in vivo): 2 h
Structure (SMILES): N[C@@H](CCC(=O)N[C@@H](CS)C(=O)NCC(=O)O)C(=O)O [GSH, Glutathione]
